# Laboratory results published in patent US9145375B2, “Quinazolinone compounds” (PRANA BIOTECHNOLOGY LIMITED, priority 2008, dated 2015).
# pIC50: −log10 of the molar value. Values joined by “and” are separate entries in the source; they are usually repeats but may differ in a detail not shown here. Equal values may be shown once.
# How the values were obtained:
# CYP2E1 = CYP2E1 (Homo sapiens, UniProt P05181); settings: read-out: Literature IC50 value, CYP2E1; Chlorzoxazone-6-hydroxylation; positive control inhibitor; unit inferred; cited from earlier work
# CYP2E1, sequence (P05181 whole entry): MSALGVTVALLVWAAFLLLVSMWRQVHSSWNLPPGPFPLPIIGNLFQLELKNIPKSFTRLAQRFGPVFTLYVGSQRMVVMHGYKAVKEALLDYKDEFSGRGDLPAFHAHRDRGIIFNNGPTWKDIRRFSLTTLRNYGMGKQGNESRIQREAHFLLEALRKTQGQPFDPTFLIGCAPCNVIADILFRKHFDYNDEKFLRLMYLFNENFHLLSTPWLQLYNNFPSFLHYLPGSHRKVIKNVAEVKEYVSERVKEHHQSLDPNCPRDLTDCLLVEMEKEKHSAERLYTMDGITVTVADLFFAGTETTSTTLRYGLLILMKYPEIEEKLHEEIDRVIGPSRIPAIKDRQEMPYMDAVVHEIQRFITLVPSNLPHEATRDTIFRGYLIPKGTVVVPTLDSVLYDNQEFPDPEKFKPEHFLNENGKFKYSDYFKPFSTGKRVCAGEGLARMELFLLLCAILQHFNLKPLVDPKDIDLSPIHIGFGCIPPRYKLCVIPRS
# [1] = system: MPTP induced cell death in the SN; test: Parkinson's disease in vivo: MPTP model; design: species or system mouse; settings: MPTP mice
# [2] = system: 6-OHDA lesion of the SNpc; test: Parkinson's disease in vivo: 6-OHDA model; design: species or system mouse; settings: 6-OHDA lesioned mice, dose not given; for Behaviour (Rotation) % SSV: SSV = 0%
# Experimental: Parkinson's Disease In Vivo Technique: 6-OHDA Model
# Preparation of the toxin 6-OHDA (1.65 mg/mL, Sigma Cat# H-4381):
# 6-OHDA toxin is dissolved in ascorbic acid solution (0.2 mg/mL in dH2O), store in dark on ice. To increase the speed of anaesthesia and reduce stress to the mouse, there is premedication with atropine (0.5 mg/kg) and xylazine (10 mg/kg) is injected subcutaneously via a 27 gauge needle).
# To Prepare the Lesion Needle to Inject 6-OHDA:
# PBS is sucked up into the line (ensure no air bubbles) with up to […] in a Hamilton syringe. Syringe is placed the in the Kd Scientific syringe pump and secured. Pump is turned the on and syringe is loaded into the pump. Pump volume is set at […] and the rate is set at 0.5 ml/min. The lesion needle is positioned so that the bevelled (eye) of the needle is at a 45° angle from the midline and tightened to secure the needle. Pump is run and checked for fluid coming out.
# 3-4% isoflurane is carried by oxygen to induce anaesthesia and 1-2% for maintenance of anaesthesia. Animal is placed in small induction chamber and subjected to a few minutes of 4% isoflurane in oxygen at a flow rate of approx 1 l/min. Mouse is then placed in stereotaxic frame. The anaesthetic tube is disconnected from induction box and isoflurane reduced to 2% conc and oxygen flow rate to approx […]. Tube is connected to the nose piece attached to stereotaxic frame so that anaesthetic gas can be constantly administered during surgery. LHS ear bar is screwed at approx 3 mm. RHS ear bar is screwed in until there is no sideways head movement (about 5 mm). Front incisors are placed over the mouthguard and put nose-guard on (3 mm below 0). Mouthguard is screwed into place and ensured the top of the mouse's head is level (re-check this once the animal's skull is exposed).
# Using a scalpel (size 4, blade 22), the scalp is cut down the centreline of the mouse's head to expose the skull. Typically 10-15 mm. The surface of the skull is dried with a cotton bud. Drill hole is measured with a ruler 3 mm posterior from Bregma and between 1 and 1.5 mm laterally from the centre line. The skull is drilled into this position until the surface of the brain is exposed.
# 6-OHDA is sucked up to fill approximately 15 cm of the line and the syringe. Fluid is ensured to be coming out of needle. The bevelled of the needle is aligned over the centreline where Bregma crosses, viewed by Motik dissecting microscope. The needle is ensured to be a few mm above the skull before positioning. Frame is moved 2.9 mm in a posterior direction and 1.1 mm (11 small notches) laterally to the right (for RHS injections) from the starting coordinates at Bregma. Needle is moved down until the tip of the needle just touches the surface of the brain.
# Needle is lowered to the required depth of 4.6 mm and brain is allowed to settle for 2 min.
# […] of toxin is injected into the RHS SNpc, taking 4 min. 2 min is allowed to ensure the toxin disperses. Needle is withdrawn and antiseptic applied to the wound, with suture or superglue to close.
# Mouse is wrapped in a piece of tissue and placed in a warm recovery box (on a heat pad) with water bottles (50 ml tubes) warmed to 50 C. Panadol® syrup is added to mouse's water bottle.
# Rotation is recorded by the Computer based Rotacount system—(Columbus Instruments, Columbus, Ohio, USA). The system comprised of 8 bowls with sensors connected to a computer which measures incremental turns (90 degrees and full turns 360 degrees) either clockwise or counter clockwise. The sensors are positioned above the centre of each bowl about 30 cm above each. Tubing and a thin empty plastic pipette are attached so that the sensor is now extended to with a few cm of the base of the bowl.
# Mice are placed individually into the eight bowls. Mice are secured to the pipettes via a cable tie and tape. […]
SMILES,pIC50 (CYP2E1),"Behaviour Pole Test, % (SSV = 0%) ([1]; L-DOPA 20 mg/kg) [%]","Behaviour Pole Test, value ± SD ([1]; L-DOPA 20 mg/kg)",SN cell counts % of SSV ([1]; L-DOPA 20 mg/kg),SN cell counts (cells +/− SD) ([1]; L-DOPA 20 mg/kg),Behaviour (Rotation) % SSV [2] [%],Behaviour (Rotation) total turns/h ± SD [2],SN cell counts % of SSV (SSV = 0%) [2] [%],SN cell counts (cells ± SD) [2],"Behaviour Pole Test, % (SSV = 0%) ([1]; Selegiline 1 mg/kg) [%]","Behaviour Pole Test, value ± SD ([1]; Selegiline 1 mg/kg)",SN cell counts % of SSV ([1]; Selegiline 1 mg/kg) [%],SN cell counts (cells +/− SD) ([1]; Selegiline 1 mg/kg)
N[C@@H]1C[C@H]1c1ccccc1 (racemic) [Tranylcypromine],5.05,,,,,,,,,,,,
"N[C@@H](Cc1ccc(O)c(O)c1)C(=O)O [L-DOPA, L-3,4-dihydroxyphenylalanine]",,−205.29,(8.91 ± 5.25),10.39% and 4.50%,1935 ± 296 cells and 2015.91 ± 729.87 cells,52.26,(123.67 ± 80.90) turns/h,1.73,(1953.78 ± 280.21) cells,,,,
"C#CCN(C)[C@H](C)Cc1ccccc1 [Selegiline, reference compound]",,,,,,71.13,(74.80 ± 57.95) turns/h,0.43,(1928.89 ± 301.77) cells,−198.93,(8.73 ± 7.95),39.2,(2754.62 ± 461.23) cells
